# Test results taken from ChEMBL document CHEMBL1133554, “Synthesis, structure-activity relationships, and pharmacological profile of 9-amino-4-oxo-1-phenyl-3,4,6,7-tetrahydro[1,4]diazepino[6, 7,1-hi]indoles: discovery of potent, selective phosphodiesterase type 4 inhibitors” (J Med Chem, 2000).
# Target: Phosphodiesterase 3 (Homo sapiens, UniProt Q14432+Q13370)
# Experiment: Inhibition of phosphodiesterase 3 (PDE3) isolated from the dog aorta
# Type: protein assay, Canis lupus familiaris
# Conditions: target entry is the homologue from another species
row,SMILES,IC50 [µM]
1,CN(C)c1cc2c3c(c1)C(c1ccccc1)=N[C@@H](NC(=O)c1cc(Cl)c(N)c(Cl)c1)C(=O)N3CC2,3.2
2,O=C(N[C@@H]1N=C(c2ccccc2)c2cccc3c2N(CC3)C1=O)c1cc2ccccc2cn1,> 100
3,Nc1cc2c3c(c1)C(c1ccccc1)=N[C@@H](NC(=O)c1cc(Cl)c(N)c(Cl)c1)C(=O)N3CC2,51.6
4,Nc1cc2c3c(c1)C(c1ccccc1)=N[C@@H](NC(=O)c1ccncc1N)C(=O)N3CC2,> 100
5,O=C(N[C@@H]1N=C(c2ccccc2)c2cccc3c2N(CC3)C1=O)c1cccnc1,> 100
6,Cc1cc2nnc(C(=O)N[C@@H]3N=C(c4ccccc4)c4cc(N)cc5c4N(CC5)C3=O)c(C)n2n1,48.6
7,COc1cc2c3c(c1)C(c1ccccc1)=N[C@@H](NC(=O)c1nnc4cc(C)nn4c1C)C(=O)N3CC2,46
8,Cc1cc2c3c(c1)C(c1ccccc1)=N[C@@H](NC(=O)c1c(Cl)cncc1Cl)C(=O)N3CC2,19.5
9,Nc1cc2c3c(c1)C(c1ccccc1)=N[C@@H](NC(=O)c1cccnc1)C(=O)N3CC2,> 100
10,COc1cc2c3c(c1)C(c1ccccc1)=N[C@@H](NC(=O)c1ccncc1)C(=O)N3CC2,40.8
11,O=C(N[C@@H]1N=C(c2ccccc2)c2cccc3c2N(CC3)C1=O)c1ccncc1,> 100
12,O=C(N[C@@H]1N=C(c2ccccc2)c2cc(N3CCCC3)cc3c2N(CC3)C1=O)c1ccncc1,18
13,Cc1cc2c3c(c1)C(c1ccccc1)=N[C@@H](NC(=O)c1nnc4cc(C)nn4c1C)C(=O)N3CC2,> 100
14,COc1cc2c3c(c1)C(c1ccccc1)=N[C@@H](NC(=O)c1cnc4ccccc4c1)C(=O)N3CC2,19.4
15,Nc1cc2c3c(c1)C(c1ccccc1)=N[C@@H](NC(=O)c1ccncc1)C(=O)N3CC2,> 100
16,CC(C)(C)OC(=O)Nc1cnccc1C(=O)N[C@@H]1N=C(c2ccccc2)c2cccc3c2N(CC3)C1=O,54.7
17,COc1ccc(C2CNC(=O)C2)cc1OC1CCCC1 (configuration not stated) [ROLIPRAM],> 100
18,Cc1cc2c3c(c1)C(c1ccccc1)=N[C@@H](NC(=O)c1cc(Cl)c(N)c(Cl)c1)C(=O)N3CC2,10.3

# Tested on: not listed separately
# Experiment: In vitro inhibition of TNF-alpha release from human peripheral blood monocytes
# Type: functional
# Conditions: not given
row,SMILES,IC50 [µM]
1,Nc1cc2c3c(c1)C(c1ccccc1)=N[C@@H](NC(=O)c1cc(Cl)c(N)c(Cl)c1)C(=O)N3CC2,0.011
2,Nc1cc2c3c(c1)C(c1ccccc1)=N[C@@H](NC(=O)c1ccncc1N)C(=O)N3CC2,0.08
3,Cc1cc2nnc(C(=O)N[C@@H]3N=C(c4ccccc4)c4cc(N)cc5c4N(CC5)C3=O)c(C)n2n1,0.26
4,Nc1cc2c3c(c1)C(c1ccccc1)=N[C@@H](NC(=O)c1cccnc1)C(=O)N3CC2,0.34
5,Cc1cc2c3c(c1)C(c1ccccc1)=N[C@@H](NC(=O)c1nnc4cc(C)nn4c1C)C(=O)N3CC2,5.35
6,Nc1cc2c3c(c1)C(c1ccccc1)=N[C@@H](NC(=O)c1ccncc1)C(=O)N3CC2,0.48
7,COc1ccc(C2CNC(=O)C2)cc1OC1CCCC1 (configuration not stated) [ROLIPRAM],0.083

# Tested on: not listed separately
# Experiment: In vitro inhibition of TNF-alpha-release from human whole blood
# Type: functional
# Conditions: not given
row,SMILES,IC50 [µM]
1,Nc1cc2c3c(c1)C(c1ccccc1)=N[C@@H](NC(=O)c1cc(Cl)c(N)c(Cl)c1)C(=O)N3CC2,0.438
2,Nc1cc2c3c(c1)C(c1ccccc1)=N[C@@H](NC(=O)c1ccncc1N)C(=O)N3CC2,0.398
3,Cc1cc2nnc(C(=O)N[C@@H]3N=C(c4ccccc4)c4cc(N)cc5c4N(CC5)C3=O)c(C)n2n1,0.75
4,Nc1cc2c3c(c1)C(c1ccccc1)=N[C@@H](NC(=O)c1cccnc1)C(=O)N3CC2,1.24
5,Cc1cc2c3c(c1)C(c1ccccc1)=N[C@@H](NC(=O)c1nnc4cc(C)nn4c1C)C(=O)N3CC2,> 30
6,Nc1cc2c3c(c1)C(c1ccccc1)=N[C@@H](NC(=O)c1ccncc1)C(=O)N3CC2,1.09
7,COc1ccc(C2CNC(=O)C2)cc1OC1CCCC1 (configuration not stated) [ROLIPRAM],0.94

# Target: Phosphodiesterase, PDE1/PDE5 (Homo sapiens, UniProt O76074+P54750+Q01064+Q14123)
# Experiment: Inhibition of phosphodiesterase 1/5 isozyme (PDE1/5) mixture isolated from the guinea pig trachea.
# Parameters: species or system Cavia porcellus
# Conditions: target entry is the homologue from another species
row,SMILES,IC50 [µM]
1,CN(C)c1cc2c3c(c1)C(c1ccccc1)=N[C@@H](NC(=O)c1cc(Cl)c(N)c(Cl)c1)C(=O)N3CC2,5.3
2,O=C(N[C@@H]1N=C(c2ccccc2)c2cccc3c2N(CC3)C1=O)c1cc2ccccc2cn1,> 100
3,Nc1cc2c3c(c1)C(c1ccccc1)=N[C@@H](NC(=O)c1cc(Cl)c(N)c(Cl)c1)C(=O)N3CC2,> 100
4,Nc1cc2c3c(c1)C(c1ccccc1)=N[C@@H](NC(=O)c1ccncc1N)C(=O)N3CC2,> 100
5,O=C(N[C@@H]1N=C(c2ccccc2)c2cccc3c2N(CC3)C1=O)c1cccnc1,> 100
6,Cc1cc2nnc(C(=O)N[C@@H]3N=C(c4ccccc4)c4cc(N)cc5c4N(CC5)C3=O)c(C)n2n1,72
7,COc1cc2c3c(c1)C(c1ccccc1)=N[C@@H](NC(=O)c1nnc4cc(C)nn4c1C)C(=O)N3CC2,14.1
8,Cc1cc2c3c(c1)C(c1ccccc1)=N[C@@H](NC(=O)c1c(Cl)cncc1Cl)C(=O)N3CC2,38
9,Nc1cc2c3c(c1)C(c1ccccc1)=N[C@@H](NC(=O)c1cccnc1)C(=O)N3CC2,> 100
10,COc1cc2c3c(c1)C(c1ccccc1)=N[C@@H](NC(=O)c1ccncc1)C(=O)N3CC2,16.1
11,O=C(N[C@@H]1N=C(c2ccccc2)c2cccc3c2N(CC3)C1=O)c1ccncc1,> 100
12,O=C(N[C@@H]1N=C(c2ccccc2)c2cc(N3CCCC3)cc3c2N(CC3)C1=O)c1ccncc1,34
13,Cc1cc2c3c(c1)C(c1ccccc1)=N[C@@H](NC(=O)c1nnc4cc(C)nn4c1C)C(=O)N3CC2,> 100
14,COc1cc2c3c(c1)C(c1ccccc1)=N[C@@H](NC(=O)c1cnc4ccccc4c1)C(=O)N3CC2,16.1
15,Nc1cc2c3c(c1)C(c1ccccc1)=N[C@@H](NC(=O)c1ccncc1)C(=O)N3CC2,> 100
16,CC(C)(C)OC(=O)Nc1cnccc1C(=O)N[C@@H]1N=C(c2ccccc2)c2cccc3c2N(CC3)C1=O,53.3
17,Cc1cc2c3c(c1)C(c1ccccc1)=N[C@@H](NC(=O)c1cc(Cl)c(N)c(Cl)c1)C(=O)N3CC2,> 100

# Tested on: Rattus norvegicus
# Experiment: In vivo inhibition of antigen induced eosinophil recruitment in Brown-Norvway Rats at 10 mg/kg peroral dose
# Type: functional
# Conditions: dose 10 mg/kg, route oral
row,SMILES,inhibition in vivo at 10 mg/kg [%]
1,Nc1cc2c3c(c1)C(c1ccccc1)=N[C@@H](NC(=O)c1cc(Cl)c(N)c(Cl)c1)C(=O)N3CC2,-61.8
2,Nc1cc2c3c(c1)C(c1ccccc1)=N[C@@H](NC(=O)c1ccncc1N)C(=O)N3CC2,-82
3,Cc1cc2c3c(c1)C(c1ccccc1)=N[C@@H](NC(=O)c1cc(Cl)c(N)c(Cl)c1)C(=O)N3CC2,-21

# Same assay, conditions: route oral
row,SMILES,ED50 [mg/kg]
1,Cc1cc2nnc(C(=O)N[C@@H]3N=C(c4ccccc4)c4cc(N)cc5c4N(CC5)C3=O)c(C)n2n1,1.8
2,Cc1cc2c3c(c1)C(c1ccccc1)=N[C@@H](NC(=O)c1c(Cl)cncc1Cl)C(=O)N3CC2,63.7
3,Nc1cc2c3c(c1)C(c1ccccc1)=N[C@@H](NC(=O)c1cccnc1)C(=O)N3CC2,3.2
4,Cc1cc2c3c(c1)C(c1ccccc1)=N[C@@H](NC(=O)c1nnc4cc(C)nn4c1C)C(=O)N3CC2,33.9
5,Nc1cc2c3c(c1)C(c1ccccc1)=N[C@@H](NC(=O)c1ccncc1)C(=O)N3CC2,1.89
6,COc1ccc(C2CNC(=O)C2)cc1OC1CCCC1 (configuration not stated) [ROLIPRAM],4.66

# Target: T1, Phosphodiesterase 4 (Homo sapiens, UniProt P27815+Q08499+Q07343+Q08493)
# Experiment: PDE4-related emetic activity in ferrets after intravenous administration at 10 mg/kg
# Type: functional, organism-based
# Parameters: dose 10 mg/kg
# Conditions: Mustela putorius furo, target entry is the homologue from another species
row,SMILES,R+V
1,Nc1cc2c3c(c1)C(c1ccccc1)=N[C@@H](NC(=O)c1ccncc1N)C(=O)N3CC2,3.5 90 min

# Target: T1, Phosphodiesterase 4
# Experiment: Inhibition of phosphodiesterase type 4 isozyme (PDE4) from the U937 human cell line.
# Type: cell-based
# Conditions: u-937
row,SMILES,IC50 [µM]
1,CN(C)c1cc2c3c(c1)C(c1ccccc1)=N[C@@H](NC(=O)c1cc(Cl)c(N)c(Cl)c1)C(=O)N3CC2,0.2
2,O=C(N[C@@H]1N=C(c2ccccc2)c2cccc3c2N(CC3)C1=O)c1cc2ccccc2cn1,5.5
3,Nc1cc2c3c(c1)C(c1ccccc1)=N[C@@H](NC(=O)c1cc(Cl)c(N)c(Cl)c1)C(=O)N3CC2,0.04
4,Nc1cc2c3c(c1)C(c1ccccc1)=N[C@@H](NC(=O)c1ccncc1N)C(=O)N3CC2,0.7
5,O=C(N[C@@H]1N=C(c2ccccc2)c2cccc3c2N(CC3)C1=O)c1cccnc1,10.5
6,Cc1cc2nnc(C(=O)N[C@@H]3N=C(c4ccccc4)c4cc(N)cc5c4N(CC5)C3=O)c(C)n2n1,0.2
7,COc1cc2c3c(c1)C(c1ccccc1)=N[C@@H](NC(=O)c1nnc4cc(C)nn4c1C)C(=O)N3CC2,2.7
8,Cc1cc2c3c(c1)C(c1ccccc1)=N[C@@H](NC(=O)c1c(Cl)cncc1Cl)C(=O)N3CC2,1
9,Nc1cc2c3c(c1)C(c1ccccc1)=N[C@@H](NC(=O)c1cccnc1)C(=O)N3CC2,0.27
10,COc1cc2c3c(c1)C(c1ccccc1)=N[C@@H](NC(=O)c1ccncc1)C(=O)N3CC2,4.4
11,O=C(N[C@@H]1N=C(c2ccccc2)c2cccc3c2N(CC3)C1=O)c1ccncc1,20.5
12,O=C(N[C@@H]1N=C(c2ccccc2)c2cc(N3CCCC3)cc3c2N(CC3)C1=O)c1ccncc1,1.4
13,Cc1cc2c3c(c1)C(c1ccccc1)=N[C@@H](NC(=O)c1nnc4cc(C)nn4c1C)C(=O)N3CC2,0.7
14,COc1cc2c3c(c1)C(c1ccccc1)=N[C@@H](NC(=O)c1cnc4ccccc4c1)C(=O)N3CC2,1.7
15,Nc1cc2c3c(c1)C(c1ccccc1)=N[C@@H](NC(=O)c1ccncc1)C(=O)N3CC2,0.5
16,CC(C)(C)OC(=O)Nc1cnccc1C(=O)N[C@@H]1N=C(c2ccccc2)c2cccc3c2N(CC3)C1=O,6.2
17,Cc1cc2c3c(c1)C(c1ccccc1)=N[C@@H](NC(=O)c1cc(Cl)c(N)c(Cl)c1)C(=O)N3CC2,0.3

# Target: T1, Phosphodiesterase 4
# Experiment: PDE4-related emetic activity in ferrets after intravenous administration at 40 mg/kg
# Type: functional, organism-based
# Parameters: dose 40 mg/kg
# Conditions: Mustela putorius furo, target entry is the homologue from another species
row,SMILES,R+V
1,Nc1cc2c3c(c1)C(c1ccccc1)=N[C@@H](NC(=O)c1cccnc1)C(=O)N3CC2,0 90 min
2,Nc1cc2c3c(c1)C(c1ccccc1)=N[C@@H](NC(=O)c1ccncc1)C(=O)N3CC2,0 90 min

# Tested on: not listed separately
# Experiment: In vivo inhibition of LPS-stimulated TNF-alpha release in Wistar rats at 10 mg/kg oral dose
# Type: functional
# Conditions: Rattus norvegicus
row,SMILES,ED50 [mg/kg]
1,Nc1cc2c3c(c1)C(c1ccccc1)=N[C@@H](NC(=O)c1cccnc1)C(=O)N3CC2,2.8

# Same assay, conditions: Rattus norvegicus, dose 10 mg/kg
row,SMILES,inhibition in vivo at 10 mg/kg [%]
1,Nc1cc2c3c(c1)C(c1ccccc1)=N[C@@H](NC(=O)c1ccncc1N)C(=O)N3CC2,-89
2,Nc1cc2c3c(c1)C(c1ccccc1)=N[C@@H](NC(=O)c1ccncc1)C(=O)N3CC2,-71
3,COc1ccc(C2CNC(=O)C2)cc1OC1CCCC1 (configuration not stated) [ROLIPRAM],94
